In patent publication US20100204118A1, “USE OF GRF-1 (1-29 ) AND CORTICOTROPIN-RELEASING FACTOR AS THERAPEUTIC AGENTS” (priority 2007, published 2010):
Ends that are not written are not given here.

How the values were obtained:
[1] = test system: hepatitis B virus (HBV) ayw strain; assay: HBV experimental assay system, HepG2-2.2.15, TaqMan PCR of secreted HBV DNA; assay type: cell-based; settings: 10 micrograms per ml; six days; HBV DNA in supernatant
Description: HepG2-2.2.15 is a stable cell line containing the hepatitis B virus (HBV) ayw strain genome (ATCC Cat. No. CRL-11997). Antiviral compounds blocking any late step of viral replication such as transcription, translation, pregenome encapsidation, reverse transcription, particle assembly and release can be identified and characterized using this cell line. In this assay, an active compound will reduce the production of secreted HBV from cells, measured by utilizing real time quantitative PCR (TaqMan) assay to directly and accurately measure HBV DNA copies.
HepG2-2.2.15 cells were plated in 96-well microtiter plates. After 16-24 hours the confluent monolayer of HepG2-2.2.15 cells was washed and the medium was replaced with complete medium containing test peptides—10 micrograms per ml—in duplicate. […] Six days following the initial administration of the peptides, the cell culture supernatants was collected, treated with pronase and DNAse and then used in a real-time quantitative TaqMan PCR assay. The PCR-amplified HBV DNA was detected in real-time by monitoring increases in fluorescence signals that result from the exonucleolytic degradation of a quenched fluorescence probe molecule that hybridizes to the mplified HBV DNA. […] Antiviral activity was calculated from the reduction in HBV DNA levels (% virus control). […]

HCMV strain AD169 = assay: HCMV plaque reduction assay in MRC-5 cells; assay type: cell-based; settings: for inhibition of HCMV plaque formation as compared to the virus control experiment: 10 micrograms per ml, 7-10 days
A549 cells = assay: Apoptosis induction assay (Annexin-5); assay type: cell-based, human; settings: 10 micrograms per ml, 24 hours
murine spleen cells = assay: Th1/Th2 cytokine profiling assay (Ovalbumin-restimulated spleen cells, CBA kit); assay type: cell-based, mouse; settings: 10 micrograms per ml; 72 hours after Ovalbumin restimulation
[2] = test system: Primary Human endothelial cells (HUVEC); assay: Endothelial cell migration assay; assay type: cell-based; settings: 10 micrograms per ml, 22 hours
HUVEC = assay: Endothelial tube formation assay; assay type: cell-based, human; settings: 10 micrograms per ml, 20 hours
Procedure: The endothelial tube formation assay is based on the ability of endothelial cells to form three-dimensional capillary-like tubular structures when cultured on a gel of basement membrane extract. The endothelial tube formation assay represents a powerful model for studying inhibition and induction of angiogenesis. Pre-labeled HUVEC with Calcein AM were seeded in a 96-well culture plate coated with extracellular metrix (Chemicon international Cat. ECM625) and treated with test peptides-10 micrograms per ml-in full growth medium. […] control was vehicle only. […] Duplicate wells for each treatment were photographed and quantitatevily analyzed for an average tubule length using image analysis software ImageProPlus. Raw data were expressed as average tubule […]±standard deviation. Statistic p values were computed using the Student's t-test.

HIV-1IIB = assay: HIV-1 antiviral assay in CEM-SS cells (MTS readout); assay type: cell-based

Compound | inhibition of HBV replication as compared to the virus control infection [1] [%] | inhibition of HCMV plaque formation as compared to the virus control experiment (HCMV strain AD169) [%] | production of IL-2, induced by (murine spleen cells) [%] | production of IL-5, decreased by (murine spleen cells) | production of TNF-alpha, induced by (murine spleen cells) [%] | inhibition of the tube formation of human endothelial cells (HUVEC) | antiviral activity of positive control compounds (HIV-1) (HIV-1IIB) | other results
Tyr-Ala-Asp-Ala-Ile-Phe-Thr-Asn-Ser-Tyr-Arg-Lys-Val-Leu-Gly-Gln-Leu-Ser-Ala-Arg-Lys-Leu-Leu-Gln-Asp-Ile-Met-Ser-Arg-NH2 (YADAIFTNSYRKVLGQLSARKLLQDIMSR-NH2) [Peptide 1] | 30.5 | 0.7 | 30.9 | 33.0 | 55.5 | did not inhibit | – | induction of apoptosis on human lung cells (in words) (A549 cells): did not show any significant induction of apoptosis; change of the production of IL-4 (in words) (murine spleen cells): did not significantly change; production of IFN-gamma, decreased by (murine spleen cells): 29.0; inhibition of the migration of human endothelial cells [2]: 9%
CC(C)(C)NC(=O)[C@@H]1CN(Cc2cccnc2)CCN1C[C@@H](O)C[C@@H](Cc1ccccc1)C(=O)N[C@H]1c2ccccc2C[C@H]1O [indinavir] | – | – | – | – | – | – | expected levels of antiviral activity | –
Cc1cn([C@H]2C[C@H](N=[N+]=[N-])[C@@H](CO)O2)c(=O)[nH]c1=O [AZT] | – | – | – | – | – | – | expected levels of antiviral activity | –
Ser-Glu-Glu-Pro-Pro-Ile-Ser-Leu-Asp-Leu-Thr-Phe-His-Leu-Leu-Arg-Glu-Val-Leu-Glu-Met-Ala-Arg-Ala-Glu-Gln-Leu- Ala-Gln-Gln-Ala-His-Ser-Asn-Arg-Lys-Leu-Met-Glu-Ile-Ile-N H2 (SEEPPISLDLTFHLLREVLEMARAEQLAQQAHSNRKLMEII-NH2) [Peptide 2] | 57.2 | 3.2 | 66.5 | 93.0 | 38.1 | did not inhibit | – | induction of apoptosis on human lung cells (A549 cells): 0.9%; production of IFN-gamma, induced by (murine spleen cells): 44.1%; production of IL-4, induced by (murine spleen cells): 78.1%; inhibition of the migration of human endothelial cells (in words) [2]: did not inhibit
Nc1nc(O)c2ncn(COC(CO)CO)c2n1 [Ganciclovir, reference compound] | – | – | – | – | – | – | – | antiviral activity of positive control compound (HCMV) (HCMV strain AD169; positive control): expected levels of antiviral activity
